{"source": "patent US20010005720A1", "about": "“METHOD OF TREATING CHRONIC P[…] SCARRING DISEASES” (U.S.A. AS REPRESENTED BY THE SECRETARY DEPARTMENT OF HEALTH …, priority 1995, published 2001)", "key": {"[1]": {"tested_on": "Watanabe rabbits", "assay": "Watanabe rabbits Study A: subcutaneous PPS, morphometry of aortic lesions", "assay_type": "in vivo, rabbit", "protocol": "Twelve Watanabe rabbits were divided into two groups of six each (Group A and Group B) and fed a high cholesterol diet (0.5% cholesterol). The animals of Group A were treated daily with normal saline subcutaneously, while the animals of Group B were treated daily with 10 mg/kg of PPS sodium (Elmiron®) subcutaneously.\nFour of the PPS-treated animals (Group B) died prior to completion of the study, one on day 22 and three between day 80 and day 86. On day 89, the animals of Group A and the two remaining animals of Group B were euthanized and necropsied and their tissues evaluated, particularly sections from different major branches of the aorta."}, "[2]": {"tested_on": "normal mesangial cell layers", "assay": "mRNA levels of selected molecules in normal mesangial cell layers exposed to PPS (reverse transcription)", "assay_type": "cell-based", "conditions": "PPS 100 μg/ml; day 1 compared with days 3 and 5", "from_the_text": "The control was β-actin, which was unchanged, consistent with the absence of proliferation in the treated cells."}, "[3]": {"conditions": "Wardle 1992; cited from earlier work"}, "[4]": {"tested_on": "normal mesangial cells", "assay": "DNA synthesis by [3H]thymidine incorporation in normal mesangial cells", "assay_type": "cell-based", "conditions": "day one (24 hours); PPS 5-100 μg/ml; 20% fetal bovine serum", "protocol": "(§1) Normal mesangial cells (8) were plated in basal medium plus 20% fetal bovine serum (Gibco, Grand Island, N.Y.) in 24-well plates (Nunc, PGC Scientific Corp., Gaithersburg, Md.) at a density of 2−2.5×10^4 cells/well. At 24 hours the medium was discarded, cells were washed twice with PBS and incubated for 24-72 h in serum-free medium with 0.1% bovine serum albumin (RIA grade, Sicjma). The medium was replaced with fresh basal medium plus 20% fetal bovine serum with or without 5-100 μg/ml of PPS or compared to standard heparin (100 μg/ml). Cells of duplicate wells were trypsinized and counted in an Elzone® cell counter (Particle Data Inc., Elmhurst, Ill.) at days +3 and +5. In parallel wells, thymidine incorporation was determined by adding 1 μCi/well of [^3H] thymidine ([methyl-^3H] thymidine); 2.0 Ci/mM; DuPont NEN, Boston, Mass.). Counts were determined at day 1 or at day 3."}, "[5]": {"tested_on": "GH transgenic mice", "assay": "GH transgenic mice, oral PPS sodium in drinking water; glomerular collagen by competitive PCR", "assay_type": "in vivo, mouse", "conditions": "about 100 mg/kg, 10-12 weeks", "protocol": "Six GH mice were treated for 10-12 weeks with oral PPS sodium (Elmiron®, Baker Norton Pharmaceuticals, Inc.) in their drinking water and six age-matched GH mice received tap water for the same duration. The amount of PPS sodium in the drinking water was about 100 mg/kg of animal body weight.\nGlomeruli were isolated by microdissection in the presence of RNase inhibitors. The left kidney was perfused with saline followed by a collagenase solution containing soluble RNase inhibitors. The lower pole was removed prior to collagenase perfusion and snap frozen on dry ice for zymography. […]\nPrimers for mouse α1IV and α1I collagen, α smooth muscle cell actin, β-actin, laminin B1, tenascin, 92 kDa metalloproteinase and 72 kDa metalloproteinase mRNAs, and for bovine growth hormone genomic DNA, were synthesized on a PCR-Mate (Applied Biosystems, Foster City, Calif.). […] Primer specificity for mRNA was determined by omitting the reverse transcriptase enzyme. […] This permitted a rapid, non-quantitative assessment of mRNA levels. Thereafter, competitive PCR assays were utilized to measure α1IV collagen (and the ratio of α1IV collagen to GAPDH enzyme was calculated to normalize the data between animals), PDGF-B, α smooth muscle cell actin, β-actin, and laminin B1 cDNAs by constructing a cDNA mutant for each molecule, with a small internal deletion or a new restriction enzyme site. […]"}, "[6]": {"tested_on": "smooth muscle cell", "conditions": "Paul et al. 1987; Wardle; cited from earlier work"}, "[7]": {"tested_on": "Watanabe rabbits", "assay": "Watanabe rabbits Study B: oral PPS in drinking water, aortic intima/media histology", "assay_type": "in vivo, rabbit", "conditions": "oral about 30 mg/kg/day in drinking water", "protocol": "Twenty Watanabe rabbits were divided into four groups of five each, Groups A through D. All of the rabbits were fed the same high cholesterol diet (0.5% cholesterol). The animals of Groups A and B were given tap water to drink, while the animals of Groups C and D were given tap water containing 0.5 mg/mL of PPS sodium (Elmiron®). Based on observations of pre-study water consumption by the animals, the total daily dose of PPS sodium consumed by each animal in the treatment groups was about 30 mg/kg.\nThe animals of Groups A and C were euthanized and necropsied on day 50 of the study and their aortae examined.\nThe rabbits of Groups B and D were euthanized and necropsied on day 64 of the study. The aortae of these groups were examined histologically and the respective cross-sectional areas of the intimal and medial layers in various aortal branches were measured."}, "[8]": {"tested_on": "normal mesangial cells", "assay": "Cell growth (cell counts) in normal mesangial cells", "assay_type": "cell-based", "protocol": "as §1"}, "[9]": {"conditions": "Paul et al. 1987; Wardle; cited from earlier work"}, "[10]": {"conditions": "10 mg/kg/day s.c., day 89, 0.5% cholesterol diet"}, "[11]": {"conditions": "PPS vs control, 10 mg/kg/day s.c., day 89"}, "[12]": {"conditions": "all aortal cross-sections examined, 10 mg/kg/day s.c."}}}
{"substance": "Pentosan polysulfate [PPS]", "values": [{"measurement": "treated animals that died prior to completion of the study", "setting": "[1]; 10 mg/kg daily subcutaneously, group of six, one on day 22, three between day 80 and 86, high cholesterol diet", "result": "Four"}, {"measurement": "Plaque area, Abdominal Aorta", "setting": "[1]; [10]", "result": 0.04, "unit": "cm^2"}, {"measurement": "Plaque area, Ascending Aorta", "setting": "[1]; [10]", "result": 0.59, "unit": "cm^2"}, {"measurement": "Smooth Muscle Layer area, Abdominal Aorta", "setting": "[1]; [10]", "result": 0.303, "unit": "cm^2"}, {"measurement": "Smooth Muscle Layer area, Ascending Aorta", "setting": "[1]; [10]", "result": 0.243, "unit": "cm^2"}, {"measurement": "Smooth Muscle Layer area, Thoracic Aorta", "setting": "[1]; [10]", "result": 0.334, "unit": "cm^2"}, {"measurement": "Smooth Muscle/Plaque, Abdominal Aorta", "setting": "[1]; [10]", "result": 7.58}, {"measurement": "Smooth Muscle/Plaque, Ascending Aorta", "setting": "[1]; [10]", "result": 4.12}, {"measurement": "Smooth Muscle/Plaque, Thoracic Aorta", "setting": "[1]; [10]", "result": 1.184}, {"measurement": "plaque in cross-section of abdominal aorta (FIG. 11 photograph)", "setting": "[1]; 10 mg/kg/day s.c., high cholesterol diet", "result": "almost no sign of plaque"}, {"measurement": "Fold decrease in Plaque Size, Abdominal Aorta", "setting": "[1]; [11]", "result": 10.2, "unit": "×"}, {"measurement": "Fold decrease in Plaque Size, Ascending Aorta", "setting": "[1]; [11]", "result": 6.8, "unit": "×"}, {"measurement": "Fold decrease in Plaque Size, Thoracic Aorta", "setting": "[1]; [11]", "result": 2.5, "unit": "×"}, {"measurement": "plaque deposits in comparison with control rabbits", "setting": "[1]; [12]", "result": "much smaller"}, {"measurement": "ratio of smooth muscle layer to plaque, times higher than control rabbits", "setting": "[1]; [12]", "result": "≤ 6.8", "unit": "times"}, {"measurement": "92 kDa enzyme activity increase", "setting": "[2]", "result": "more than 50%"}, {"measurement": "TGF-β mRNA reduction", "setting": "[2]", "result": 50, "unit": "%"}, {"measurement": "type I collagen mRNA", "setting": "[2]", "result": "substantially decreased"}, {"measurement": "type IV collagen mRNA", "setting": "[2]", "result": "no changes"}, {"measurement": "β-actin mRNA (control)", "setting": "[2]", "result": "unchanged"}, {"measurement": "anticoagulant potency relative to heparin", "setting": "[3]", "result": "about one-fifteenth"}, {"measurement": "partial thromboplastin time", "setting": "[3]", "result": "prolongs"}, {"measurement": "concentration at which the maximum dose-response plateaued (DNA synthesis, tritiated thymidine incorporation)", "setting": "[4]", "result": 50, "unit": "µg/mL"}, {"measurement": "mean type IV collagen/GAPDH ratio in glomeruli relative to untreated (control) group", "setting": "[5]", "result": "less than half"}, {"measurement": "scarring-type collagen present in glomeruli vs untreated animals (confirmed by histology and immunofluorescent microscopy)", "setting": "[5]", "result": "considerably less"}, {"measurement": "smooth muscle cell proliferation", "setting": "[6]", "result": "inhibits"}, {"measurement": "atherosclerotic plaque development in intima, visual, vs control", "setting": "[7]; day 50, Group C vs Group A", "result": "less atherosclerotic plaque development"}, {"measurement": "mean intimal cross-sectional area in each aortal branch vs untreated", "setting": "[7]; day 64, Group D vs Group B", "result": "substantially less"}, {"measurement": "ratio of intima to medial areas in every aortal branch vs untreated", "setting": "[7]; day 64, Group D vs Group B", "result": "lower"}, {"measurement": "potency relative to native heparin on a molar basis (cell growth inhibition)", "setting": "[8]; PPS 100 μg/ml vs heparin 100 μg/ml, three and five days", "result": "roughly twice"}, {"measurement": "concentration of maximum inhibitory response (cell number)", "setting": "[8]; day three, PPS 5-100 μg/ml, 20% fetal bovine serum", "result": 25, "unit": "µg/mL"}, {"measurement": "hyperlipidemia", "setting": "[9]", "result": "decreases"}]}
